Results on 32 molecules are retold here after ChEMBL document CHEMBL3045219, “Molecular modeling studies, synthesis and biological evaluation of derivatives of N-phenylbenzamide as Plasmodium falciparum dihydroorotate dehydrogenase (PfDHODH) inhibitors” (Med Chem Res, 2011).

Structures are written as SMILES.

For test [1], the target named is T1, Dihydroorotate dehydrogenase (Plasmodium falciparum, UniProt Q54A96).
T1 sequence (Q54A96 whole entry): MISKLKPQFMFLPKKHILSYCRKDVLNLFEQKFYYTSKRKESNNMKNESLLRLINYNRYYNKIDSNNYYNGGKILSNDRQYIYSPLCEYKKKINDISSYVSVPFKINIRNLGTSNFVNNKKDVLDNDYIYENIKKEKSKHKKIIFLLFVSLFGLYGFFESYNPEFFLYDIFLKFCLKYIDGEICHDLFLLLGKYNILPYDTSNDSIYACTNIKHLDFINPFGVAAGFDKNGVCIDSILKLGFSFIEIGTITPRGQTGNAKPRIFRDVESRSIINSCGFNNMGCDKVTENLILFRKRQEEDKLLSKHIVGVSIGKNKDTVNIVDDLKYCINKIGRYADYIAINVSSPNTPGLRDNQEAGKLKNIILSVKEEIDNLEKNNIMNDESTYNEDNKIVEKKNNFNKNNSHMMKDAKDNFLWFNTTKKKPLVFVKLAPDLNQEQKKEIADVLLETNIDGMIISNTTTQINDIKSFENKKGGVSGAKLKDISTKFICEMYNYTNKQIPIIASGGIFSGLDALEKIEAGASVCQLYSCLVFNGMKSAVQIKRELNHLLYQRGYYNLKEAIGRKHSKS
As to the kind of experiment: Inhibition of Plasmodium falciparum HIs6-tagged DHODH expressed in Escherichia coli DH5alpha using L-dihydroorotate as substrate by DCIP-based spectrophotometric analysis.

For test [2], the system named is Plasmodium falciparum. As to the kind of experiment: Antiplasmodial activity against Plasmodium falciparum assessed as inhibition of [3H]hypoxanthine incorporation. Format: functional, organism-based.

As to `O=C(Nc1ccccc1C(F)(F)F)Nc1cccc2ccccc12`, the IC50 in test [1] is 0.2 µM.
For the molecule `O=C(Nc1ccc(F)c(Cl)c1)c1ccccc1`, in test [2], the IC50 came out at 5.7 µM.
The molecule `Cc1ccc(NC(=O)/C(C#N)=C(\O)C2CC2)cc1` showed an IC50 in test [1] of 871 µM.
Turning to `N#C/C(C(=O)Nc1ccc(C#N)cc1)=C(/O)C1CC1`, the IC50 in test [1] was 708 µM.
For the molecule `N#C/C(C(=O)Nc1ccc(C(F)(F)F)cc1)=C(/O)C1CC1`, the IC50 in test [1] is 1070 µM.
`Cc1ccc(NC(=O)c2ccccc2)cc1`: the IC50 in test [2] is over 10 µM.
On the same count and under the same terms, the value for `O=C(Nc1ccc([N+](=O)[O-])cc1)c1ccccc1` was over 10 µM.
On the same count and under the same terms, next, `O=C(Nc1ccccc1Cl)c1ccccc1`: over 10 µM.
Turning to `O=C(Nc1cccc([N+](=O)[O-])c1)c1ccccc1`, the IC50 in test [2] was over 10 µM.
On the same count and under the same terms, next, `O=C(Nc1cccc(Cl)c1)c1ccccc1`: 8.7 µM; `O=C(Nc1ccccc1[N+](=O)[O-])c1ccccc1`: over 10 µM.
`Cc1c(C(=O)Nc2cc(Cl)cc(Cl)c2)cccc1[N+](=O)[O-]` had a concentration for half-maximal inhibition (IC50) in test [1] of 0.151 µM.
Regarding `O=C(Nc1ccc(Cl)cc1)c1ccccc1`, in test [2], the half-maximal inhibitory concentration (IC50) is over 10 µM.
On to `O=C(Nc1cccc(Cl)c1Cl)c1ccccc1`, for which the IC50 in test [2] was over 10 µM.
Regarding `O=C(Nc1ccc(Cl)cc1Cl)c1ccccc1`, the half-inhibitory concentration (IC50) in test [2] was over 10 µM.
On to `Cc1cccc(NC(=O)c2ccccc2)c1`, for which the IC50 in test [2] was over 10 µM.
For `COc1ccc(NC(=O)c2ccccc2)cc1Cl`, the 50% inhibitory concentration (IC50) in test [2] was over 10 µM.
Consider `O=C(Nc1ccc(Br)cc1)c1ccccc1`, for which the IC50 in test [2] was over 10 µM.
For `O=C(Nc1ccc(Cl)cc1Cl)c1ccc2ccccc2c1`, half-maximal inhibition in test [1] (IC50) required 0.1 µM.
The same measure, in the same setting: next, `Cc1ccc(NC(=O)c2ccc3ccccc3c2)c(Cl)c1`: 0.151 µM; `O=C(Nc1ccccc1F)c1ccc2ccccc2c1`: 0.251 µM; `Cc1c(C(=O)Nc2cccc(Br)c2)cccc1[N+](=O)[O-]`: 0.1 µM.
On the same count and under the same terms, the value for `Cc1c(C(=O)Nc2ccc(F)c(F)c2)cccc1[N+](=O)[O-]` was 0.151 µM.
Still for that read-out and setting: the value for `Cc1c(C(=O)Nc2cccc3ccccc23)cccc1[N+](=O)[O-]` was 0.1 µM.
For the molecule `Cc1c(C(=O)Nc2ccc(Cl)c(Cl)c2)cccc1[N+](=O)[O-]`, the IC50 in test [1] was 0.251 µM.
Turning to `Cc1cccc(NC(=O)c2cccc([N+](=O)[O-])c2C)c1`, the IC50 in test [1] is 0.302 µM.
Same read-out and setting: next, `COc1ccccc1NC(=O)Nc1cccc2ccccc12`: 0.251 µM.
On the same count and under the same terms, next, `O=C(Nc1ccc(Cl)cc1)Nc1cccc2cccnc12`: 0.55 µM.
The same measure, in the same setting: next, `N#C/C(C(=O)Nc1ccc([N+](=O)[O-])cc1)=C(/O)C1CC1`: 537 µM.
Consider `C[C@H]1[C@H](OC(=O)CCC(=O)O)O[C@@H]2O[C@@]3(C)CC[C@H]4[C@H](C)CC[C@@H]1[C@@]24OO3` [ARTESUNATE], for which the half-maximal inhibitory concentration (IC50) in test [2] is 0.017 µM.
For the molecule `Cc1ccccc1NC(=O)c1ccccc1` [N-O-TOLYLBENZAMIDE], the half-maximal inhibitory concentration (IC50) in test [2] is over 10 µM.
Take `O=C(Nc1ccccc1)c1ccccc1` [N-PHENYLBENZAMIDE]: the IC50 in test [2] is over 10 µM.

Broadly, the IC50 is the concentration at which inhibition is half-maximal.
